Experiment [1] relates to CAL-85-1. Particulars: 72 h. Summed up:
(§1)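 Breast cancer cell lines in 20 µl suspension were seeded onto 384-well plates pre-loaded with compound dissolved in 5 µl medium, then incubated 72 h. For viability, 2.5 µl CellTiter-Blue was added for 2 h at 37 °C and fluorescence read at 560/590 nm. Each plate was normalised to vehicle and a positive kill control and checked by Z'-factor. EC50 comes from the fitted percent-inhibition dose-response curve, censored at the highest concentration; rows with zero drug sensitivity score were dropped.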

The test system of experiment [2] is MDA-MB-453. Particulars: 72 h. Summed up:
as §1

Experiment [3] has as its system HDQ-P1. The note with it: 72 h. Summed up: as §1
For a further experiment, the system named is DU-4475. Particulars: 72 h. Summed up: as §1
A further experiment deals with MDA-MB-468. The note with it: 72 h. Summed up:
as §1

In a further experiment the test system is MDA-MB-231. Particulars: 72 h. Summed up:
as §1

In a further experiment the test system is MFM-223. The note with it: 72 h. Summed up: as §1
Experiment [4] relates to BT-474. Particulars: 72 h. Summed up:
as §1

Experiment [5] has as its system CAL-85-1. Briefly: normalised response (% of control), CellTiter-Glo; higher = more viable cells (100 = DMSO, 0 = benzethonium chloride kill control). The note with it: incubation time: 72 h. Summed up: (§2)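 After 72 h with compound in 384-well plates, breast cancer cell lines seeded as 20 µl suspension were read for CellTox Green fluorescence at 485/520 nm. CellTiter-Glo luminescence was then read after 10 min at room temperature. Compound was present at 5 concentrations in 10-fold steps over a 10,000-fold range set per compound, and plates were normalised to 0.1 % DMSO (100) and a positive kill control (0). Values are normalised signals, each at a single concentration.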
For orientation: In ATP-based viability assays light output follows the ATP content of the culture.

In experiment [6] the test system is HDQ-P1. Described as above. The note with it: incubation time: 72 h. Summed up:
as §2

In experiment [7] the test system is BT-474. The description is as above. Particulars: incubation time: 72 h. Summed up: as §2
A further experiment has as its system MDA-MB-436. Described as above. The note with it: incubation time: 72 h. Summed up: as §2
A further experiment concerns SK-BR-3. The note with it: 72 h. Summed up: (§3)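 In this assay, breast cancer cell lines spent 72 h with compound at 5 concentrations in 10-fold steps over a compound-specific 10,000-fold range. The first readout was cell death by CellTox Green fluorescence, and the second was viability by CellTiter-Glo luminescence, each normalised per plate to 0.1 % DMSO and a positive kill control. EC50 came from the dose-response curves, censored at the top concentration.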

The next experiment has as its system CAL-148. The note with it: 72 h. Summed up:
as §3

The next experiment deals with BT-549. Particulars: 72 h. Summed up: as §3
In experiment [8] the test system is CAL-85-1. Particulars: 72 h. Summed up:
as §3
The source holds these as a separate data set.

The test system of experiment [9] is MDA-MB-453. Particulars: 72 h. Summed up: as §3
This is another data set of the same source.

Experiment [10] relates to HDQ-P1. The note with it: 72 h. Summed up: as §3
This is another data set of the same source.

The test system of the next experiment is MCF-10A. Particulars: 72 h. Summed up:
as §3

In the next experiment the test system is Hs578T. The note with it: 72 h. Summed up: as §1
In experiment [11] the test system is CAL-85-1. The note with it: 72 h. The procedure:
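Drug sensitivity and resistance testing (DSRT) of breast cancer cell lines in 384-well plates, 5 concentrations in 10-fold dilutions over a compound-specific 10,000-fold range. After 72 h, cytotoxicity was read by CellTox Green fluorescence and viability by CellTiter-Glo luminescence (multiplexed), normalised to DMSO and benzethonium chloride controls. EC50 is the inflection point of the fitted dose-response curve (bottom asymptote free, so it can be relative for partial curves) and is censored at the highest tested concentration. Rows with DSS 0 (no meaningful response) were excluded.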
This is another data set of the same source.

A value given as a limit tells only on which side of the number the result lay.

Consider `CN1CCC(COc2cnc(-c3cccc(Cn4nc(-c5cccc(C#N)c5)ccc4=O)c3)nc2)CC1`, for which the “EC50, CellTiter-Blue viability” value was 5150 nM in the experiment with CAL-85-1 [1]; 3640 nM with MDA-MB-453 [2]; 4970 nM with HDQ-P1 [3]; 5890 nM in the experiment with DU-4475; 3040 nM with MDA-MB-468; 2060 nM with MDA-MB-231. For the same molecule, the “EC50, CellTiter-Blue viability” value in the experiment with MFM-223 is 6270 nM; in the experiment on BT-474 [4], 4450 nM.

As for `CN1CCC(COc2cnc(-c3cccc(Cn4nc(-c5cccc(C#N)c5)ccc4=O)c3)nc2)CC1` (1000 nM), the normalised response in the experiment on CAL-85-1 [5] came out at 99.8%; with HDQ-P1 [6] it was 99.6%; with BT-474 [7], 93.3%; in the experiment on MDA-MB-436, 84.4%.

Take `CN(C)C/C=C/C(=O)Nc1cc2c(Nc3ccc(F)c(Cl)c3)ncnc2cc1O[C@H]1CCOC1` [Afatinib]: the “EC50, CellTiter-Blue viability” value with CAL-85-1 [1] is 147 nM; with MDA-MB-453 [2] it was 45.7 nM; in the experiment with HDQ-P1 [3], 398 nM; with Hs578T it was 4260 nM; in the experiment on MDA-MB-468, 1160 nM; in the experiment on MDA-MB-231 it was 2010 nM. Moreover, the “EC50, CellTiter-Blue viability” value was 3740 nM with MFM-223 and 20.9 nM in the experiment on BT-474 [4]. Further, the “EC50, CellTiter-Glo” value with SK-BR-3 is 10.7 nM; in the experiment with CAL-148 it was 24.1 nM; in the experiment with BT-549, > 1000 nM; in the experiment on CAL-85-1 [8] it was 35.2 nM; with MDA-MB-453 [9], 54.7 nM; in the experiment with HDQ-P1 [10], 9.48 nM. Besides, the “EC50, CellTiter-Glo” value with MCF-10A turned out to be 6.58 nM. The “EC50, CellTox Green” value in the experiment with CAL-85-1 [11] worked out at 19.7 nM.

As for `CN(C)C/C=C/C(=O)Nc1cc2c(Nc3ccc(F)c(Cl)c3)ncnc2cc1O[C@H]1CCOC1` [Afatinib] (1000 nM), the normalised response in the experiment on CAL-85-1 [5] is 61.7%; with HDQ-P1 [6], 64.3%; in the experiment with BT-474 [7] it was 80.2%; with MDA-MB-436, 98%.

On to `CN1CC[C@H](c2c(O)cc(O)c3c(=O)cc(-c4ccccc4Cl)oc23)[C@H](O)C1` [Alvocidib] (10000 nM), for which the normalised response in the experiment with CAL-85-1 [5] came out at 7.8%; in the experiment on HDQ-P1 [6], 26.2%; in the experiment on BT-474 [7], 21.7%; with MDA-MB-436, 20.1%.

Turning to `Nc1nc(Cl)nc2c1ncn2[C@H]1C[C@H](O)[C@@H](CO)O1` [Cladribine] (1000 nM), the normalised response turned out to be 75.5% with CAL-85-1 [5], 89.2% in the experiment on HDQ-P1 [6], 74.8% with BT-474 [7] and 77.3% with MDA-MB-436.

The values are drawn from the supplement of paper PMC4862054.
